Results from patent publication US20230175029A1, “ENZYME CASCADES BASED ON SUCROSE SYNTHASE AND PYROPHO[…] CONVERSION OF ADP TO ATP” (RHEINISCH-WE[…]-NISCHE HOCHSCHULE (RWTH) AACHEN, priority 2020, published 2023).
pIC50: −log10 of the molar value.

Experiments:
EcAGPase [1] = biological target: T1, EcAGPase (Escherichia coli, UniProt P0A6V1); experiment: Effect of Glc-1-P on ATP synthesis activity of EcAGPase; type: biochemical, E. coli; parameters: His6; made in house; host or cells: E. coli BL21 (DE3), vector pET22b; conditions: 3 mM ADP-Glc, 3 mM PPi
Source text: The EcAGPase prefers the ADP-Glc synthesis. Thus, the accumulation of Glc-1-P negatively affects the reaction equilibrium for ATP synthesis. Therefore, the effect of Glc-1-P on the ATP synthesis activity of EcAGPase was investigated.

EcAGPase [2] = biological target: T1, EcAGPase; experiment: Influence of Fru-1,6-P2 concentration on activity of EcAGPase; type: biochemical, E. coli; parameters: His6; made in house; host or cells: E. coli BL21 (DE3), vector pET22b; conditions: for EcAGPase activity: 3 mM ADP-Glc, 3 mM PPi, pH 8, 37° C.
Procedure: Fru-1,6-P2 was used as an activator for EcAGPase. It is Fru-1,6-P2 a relatively expensive compound and its use in the EcAGPase reaction should be reduced as much as possible. Therefore, the activity of EcAGPase was investigated for different Fru-1,6-P2 concentrations to determine a minimum concentration of the activator.
The experiment included 3.9 μg/mL EcAGPase, 3 mM ADP-Glc, 3 mM PPi, 10 mM MgCl2 and Fru-1,6-P2 at concentrations ranging from 0.1 mM to 1 mM, as well as a control reaction without Fru-1,6-P2.

EcAGPase [3] = biological target: T1, EcAGPase; conditions: 2.5 mM ADP-Glc, 1 mM Fru-1,6-P2, pH 8, 37° C.
Procedure: The influence of PPi concentrations on the ATP synthesis activity of the EcAGPase used was investigated.
The experiment included 4.35 μg/mL EcAGPase, 2.5 mM ADP-Glc, 10 mM MgCl2, 1 mM Fru-1,6-P2 and PPi, at concentrations ranging from 0.75 mM to 10 mM, and a control reaction without PPi. ATP synthesis was performed in 600 μL of 100 mM HEPES buffer, pH 8 at 37° C. for 12 min. The synthesis was stopped at the respective measurement points with 28 mM SDS (final concentration 7 mM) and the analysis of the nucleotides (ADP-Glc, AMP, ADP, ATP) was performed by multiplex capillary electrophoresis (internal standards (final concentrations): 1 mM para-aminobenzoic acid and 1 mM 4-aminophthalic acid) and the analytes were detected at 254 nm.

T1 sequence (P0A6V1 whole entry): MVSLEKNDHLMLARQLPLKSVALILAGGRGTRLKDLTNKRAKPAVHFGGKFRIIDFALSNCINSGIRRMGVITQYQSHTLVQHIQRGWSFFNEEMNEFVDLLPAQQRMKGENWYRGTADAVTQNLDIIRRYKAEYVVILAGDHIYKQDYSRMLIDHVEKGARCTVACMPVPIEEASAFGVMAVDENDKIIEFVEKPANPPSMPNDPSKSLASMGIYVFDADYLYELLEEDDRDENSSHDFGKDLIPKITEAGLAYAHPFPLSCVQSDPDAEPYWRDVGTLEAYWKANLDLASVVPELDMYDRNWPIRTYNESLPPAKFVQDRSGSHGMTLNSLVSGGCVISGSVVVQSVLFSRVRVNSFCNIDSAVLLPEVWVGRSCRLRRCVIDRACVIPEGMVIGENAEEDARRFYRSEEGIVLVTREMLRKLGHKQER

O=P(O)(O)O[C@H]1O[C@H](CO)[C@@H](O)[C@H](O)[C@H]1O [Glc-1-P, glucose-1-phosphate]
activity of the enzyme relative to activity without addition of Glc-1-P (EcAGPase [1]; 1 mM Glc-1-P, 0.5 mM Fru-1,6-P2): 71% | pIC50 (EcAGPase [1]; 0.5 mM Fru-1,6-P2, pH 8, 37° C.): 2.75 | residual activity (EcAGPase [1]; 5 mM Glc-1-P, 0.5 mM Fru-1,6-P2): 27%

O=C(COP(=O)(O)O)[C@@H](O)[C@H](O)[C@H](O)COP(=O)(O)O [Fru-1,6-P2, fructose-1,6-bisphosphate]
EcAGPase activity (EcAGPase [2]; 0.25 mM Fru-1,6-P2): 20 U/mg | EcAGPase activity, fold higher than without activator (EcAGPase [2]; 0.5 mM Fru-1,6-P2): 12 fold | EcAGPase activity (EcAGPase [2]; 0.5 mM Fru-1,6-P2): 60 U/mg

O=P(O)(O)OP(=O)(O)O [PPi, inorganic pyrophosphate]
PPi concentration at which EcAGPase shows a reduction in specific activity (EcAGPase [3]): above 3 mM | specific activity of EcAGPase (EcAGPase [3]; 7 mM PPi): 0.6 U/mg
